In article PMC5071372, “Combining biophysical methods to analyze the disulfide bond in SH2 domain of C-terminal Src kinase” (Biophysics Reports, 2016):
Square brackets hold non-standard residues; d marks the D form. Peptide text beside a SMILES is read from it. pY = N[C@@H](Cc1ccc(OP(=O)(O)O)cc1)C(=O)O

How the values were obtained:
reduced Csk L-SH2 = molecular target: T1, reduced Csk L-SH2 (Homo sapiens, UniProt P41240); assay: Fluorescence titration of reduced Csk L-SH2 with Cbp peptide; type: binding; settings: 10-residue Cbp peptide, Csk SH2, redox form not given
T1 construct: made in house
T1 sequence (P41240 73-178): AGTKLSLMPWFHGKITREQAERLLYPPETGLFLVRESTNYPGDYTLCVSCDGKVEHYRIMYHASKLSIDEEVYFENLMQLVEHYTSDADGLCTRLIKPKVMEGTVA
Method: Fluorescence titrations were performed at 25 °C in 3 mL of 50 mmol/L Tris-HCl (pH 7.5) using excitation and emission wavelengths of 288 nm and 320 nm, respectively. The 10-residue synthetic phosphopeptide corresponding to the specific SH2-binding site in Cbp was titrated with the L-SH2 sample. The typically adopted protein concentration is 5 μmol/L. For the denaturation experiments, ultrapure guanidine hydrochloride (Sigma S0933) was used. Proteins were exposed to guanidine hydrochloride concentrations ranging from 0 to 6 mol/L at 0.1–0.2 mol/L steps. The concentrations of guanidine hydrochloride of the solutions were determined by measuring the index of refraction and by using the following equation: d/d 0 = 1 + 0.2710 W + 0.0330 W ^2 (Tanford et al. [1966]), where W is the weight fraction of guanidine hydrochloride in the solution, d is the density of the solution, and d 0 is the density of water. Reversibility of the guanidine hydrochloride-induced unfolding reaction and the time necessary to re-establish equilibrium were determined by diluting a concentrated protein solution containing 6 mol/L guanidine hydrochloride into the buffer and by monitoring the fluorescence spectrum of the protein as a function of time. […] F unf values were calculated from the linear extrapolation of the pre- and post-unfolding baselines. […]

Csk L-SH2 disulfide bond = assay: NMR-monitored reduction of oxidized SH2 by DTT; type: physicochemical, human; settings: 10 mmol/L DTT, pH 7.5, NMR
From the text: During purification of the Csk L-SH2 domain, 50 mmol/L DTT was used to elute the protein from the chitin resin. The L-SH2 was used in reduced form, given that DTT was used to cleave L-SH2 from its intein fusion partner. Following elution of the protein from the ion exchange column, the L-SH2 became a mixture of the reduced and oxidized forms. The fully oxidized form was obtained by exposing the protein to air for several days.
Fig. 3 Comparison of the oxidized and reduced form of SH2. A Comparison of ^1H–^15N HSQC of oxidized (red) and reduced (green) SH2. B Combined chemical shift change of oxidized and reduced form SH2. The difference was calculated as ∆δ tot = [(∆δ H)^2 + (0.154∆δ N)^2]^1/2. […]
All NMR experiments were performed at 298 K on 800 MHz spectrometers equipped with triple-resonance cryoprobes. […] The combined change in chemical shift of a particular residue upon ligation with the kinase domain was calculated as ∆δ = [(∆δ H)^2 + (0.154∆δ N)^2]^1/2, where ∆δ H and ∆δ N correspond to the changes in amide proton and nitrogen chemical shift, respectively. The weight factor for ^1H and ^15N is determined from the ratio of the average variances of the amide nitrogen and proton chemical shifts observed for the 20 common amino acid residues in proteins deposited in the BioMagResBank (Mulder et al. [1999]). […]

full-length Csk = settings: ref Kemble and Sun [2009]; cited from earlier work
From the text: Disulfide bonds are mostly found in secretory proteins and in extracellular domains of membrane proteins. Cytosolic proteins, which contain cysteine residues that are in close proximity to each other, may function as oxidation sensors; when the reductive potential of the cell fails, they oxidize and trigger cellular response mechanisms (Sevier and Kaiser [2002]). Mills et al. studied the unique disulfide bond of Csk SH2 that is absent in other known SH2 domains.

Structure (SMILES) | affinity of Cbp peptide for Csk SH2 (in words) (reduced Csk L-SH2) | time sufficient to reduce the SH2 domain (Csk L-SH2 disulfide bond) | activation of Csk (full-length Csk)
CC[C@H](C)[C@H](N)C(=O)N[C@@H](CO)C(=O)N[C@@H](C)C(=O)N[C@@H](CCSC)C(=O)N[C@@H](Cc1ccc(OP(=O)(O)O)cc1)C(=O)N[C@@H](CO)C(=O)N[C@@H](CO)C(=O)N[C@H](C(=O)N[C@@H](CC(N)=O)C(=O)N[C@@H](CCCCN)C(=O)O)C(C)C [Cbp peptide] (H-ISAM[pY]SSVNK-OH) | affinity at the µmol/L level |  | 
O[C@@H](CS)[C@@H](O)CS [DTT, reference compound] |  | ≤ 10 h | mildly activated
